The values that follow come from US12178838B2, “Synthetic neuromodulatory peptides” (Lactocore, Inc., priority 2019, dated 2024).

In series [1] the test system is benzodiazepine site of GABAA receptors. The protocol:
The incubation mixture (final volume 0.5 ml) contained 50 μl of […]

On the set-up of series [2]: species or system rats. The settings on record: rat, in vivo. The protocol: Tritium-labeled peptide FQSE (SEQ ID NO:10) was administered intranasally (i.n.) at a dose of 500 μg/kg diluted in saline. The administered sample contained 2000 pKi of tritium-labeled peptide [^3H] FQSE (SEQ ID NO:10). In 6 minutes after the administration, test samples of brain, blood and urine were obtained.
The study was carried out using tritium-labeled peptide FQSE (SEQ ID NO:10). For that, rats were administered with 2000 pKi [^3H] FQSE (SEQ ID NO:10) in dose 500 μg/kg (about 150 μg). The solutions administered to animals were prepared using saline solution. The volume of the solution for intranasal administration was 20 μl for rats.
In rat experiments, product FQSE (SEQ ID NO:10) was administered as a single, bolus, intranasal injection. Preliminarily, rats were anesthetized with chloral hydrate (300 mg/kg), and in 10 min, product FQSE (SEQ ID NO:10) was administered in volume 20 μl, in dose 500 μg/kg which contained 2000 pKi of labeled peptide [^3H]FQSE (SEQ ID NO:10). Rats were decapitated in 6 minutes after the product administration. […]
The quantitative analysis of peptides was performed with HPLC on column Kromasil C18, 4×150 mm in methanol gradient (0-40%), presence of 0.08% TEA and 0.02% HBA (heptafluorobutyric acid). The fractions containing peptide FQSE (SEQ ID NO:10) were collected, and their radioactivity was determined with liquid scintillation counting.

Series [3] addresses hippocampal NMDA receptors. Kind of series: Radioligand analysis of NMDA receptors with [3H] (+) MK-801. The note with it: [3H] (+) MK-801, room temperature, 2 hours; read-out: IC50 of displacement curve. Format: binding, rat. From the text:
Hippocampal plasma membranes were isolated using modified methods (Zhou et al. (1997). (2S,4R)-4-methylglutamic acid (SYM 2081): a selective, high-affinity ligand for kainate receptors. J. Pharmacol. Exp. Ther., 280(1), 422-427, LePage et al. (2005). Differential binding properties of [^3H] dextrorphan and [^3H] MK-801 in heterologously expressed NMDA receptors. Neuropharmacol., 49(1), 1-16). After decapitation, the tissue was immediately frozen in liquid nitrogen and stored in a low-temperature refrigerator at −80° C. On the day of the experiment, the hippocampi were homogenized “Teflon-glass” in a Potter homogenizer in 10 volumes of buffer No. 1 (5 mM HEPES, 4.5 mM Tris, 0.32 M Sucrose, pH 7.6). The homogenate was diluted with 50 volumes of buffer No. 2 (5 mM HEPES, 4.5 mM Tris, pH 7.6) and centrifuged at 1000 g for 10 minutes on an Optima L-70K ultracentrifuge (Beckman Coulter). The supernatant was […] and centrifuged again at 25000 g for 20 minutes. To increase the protein yield, this operation was performed twice. The resulting precipitate was resuspended in 50 volumes of buffer No. 2 and centrifuged at 8000 g for 20 minutes. […]
The IC50 value with respect to the binding of labeled ligands was determined by adding 50 μl of the test compounds to the incubation medium at final concentrations of 10^−10-10^−4 M. The volume of the incubation mixture was 500 μl. […]

Like-named read-outs stand apart in the source and are kept apart here. Residues, ends and D or L forms follow the SMILES beside them.

`NC(=O)CC[C@H](NC(=O)[C@@H](N)Cc1ccccc1)C(=O)N[C@@H](CO)C(=O)N[C@@H](CCC(=O)O)C(=O)O` [FQSE] (H-FQSE-OH): the “Specific binding of [3H]-Flunitrazepam, relative to control levels” value stood at 101.07% in series [1] (Diazepam 10^−6M + FQSE 10^−4M, 25 min pre-incubation + 30 min incubation, 4° C.); 100.58% in series [1] (Diazepam 10^−6M + FQSE 10^−4M, 25 min pre-incubation + 30 min incubation, 24° C.); 100.27% in series [1] (Diazepam 10^−6M + FQSE 10^−4M, 30 min incubation, 4° C.); 100.95% in series [1] (Diazepam 10^−6M + FQSE 10^−4M, 30 min incubation, 24° C.); 101.07% in series [1] (Diazepam 10^−6M + FQSE 10^−5M, 25 min pre-incubation + 30 min incubation, 4° C.); 99.78% in series [1] (Diazepam 10^−6M + FQSE 10^−5M, 25 min pre-incubation + 30 min incubation, 24° C.). Besides, the “Specific binding of [3H]-Flunitrazepam, relative to control levels” value in series [1] (Diazepam 10^−6M + FQSE 10^−5M, 30 min incubation, 4° C.) was 100.04%; in series [1] (Diazepam 10^−6M + FQSE 10^−5M, 30 min incubation, 24° C.), 100.70%. Besides, in series [2], the blood-brain barrier penetration entry is “can penetrate blood-brain barrier”.

As for `C[C@]12N[C@H](Cc3ccccc31)c1ccccc12` [MK-801], the IC50 in series [3] was 7 nM.
